Data published in patent US7138361B2, “Herbicidal heterocycles” (E. I. du Pont de Nemours and Company, priority 2000, dated 2006).

Tests used:
Assay type in all cases: in vivo
[1] = test system: wheat (Triticum aestivum); test: Test B postemergence; conditions: 13 to 15 days
Method in brief: (§1)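 Ratings on a 0 to 100 visual scale (100 complete control) compare treated plants with controls 13 to 15 days after application. Treatments were pre- or postemergence sprays of compound in non-phytotoxic solvent with surfactant.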

[2] = test system: wild oat (Avena fatua); test: Test B postemergence; conditions: 13 to 15 days
Method in brief: as §1

[3] = test system: barnyardgrass (Echinochloa crus-galli); test: Test B postemergence; conditions: 13 to 15 days
Method in brief: as §1

[4] = test system: corn (Zea mays); test: Test B postemergence; conditions: 13 to 15 days
Method in brief: as §1

[5] = test system: smallflower flatsedge (Cyperus difformis); test: Test C flooded paddy test; conditions: for Flatsedge plant response rating: Flooded Paddy, scale 0 to 100, 0 no effect, 100 complete control; for Plant response rating, Flatsedge: flooded paddy test, scale 0 to 100 (0 no effect, 100 complete control)
Method in brief: (§2)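 Response on a 0-to-100 scale (no effect to complete control) was assessed by eye versus controls. Plants had reached 2 leaves when treated in flooded paddy conditions. The assessment took place after 12–14 days of greenhouse growth.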

[6] = test system: rice (Oryza saliva); test: Test C flooded paddy test; conditions: for Rice plant response rating: Flooded Paddy, scale 0 to 100, 0 no effect, 100 complete control; for Plant response rating, Rice: flooded paddy test, scale 0 to 100 (0 no effect, 100 complete control)
Method in brief: as §2

[7] = test system: duck salad (Heteranthera limosa); test: Test C flooded paddy test; conditions: for Ducksalad plant response rating: Flooded Paddy, scale 0 to 100, 0 no effect, 100 complete control; for Plant response rating, Ducksalad: flooded paddy test, scale 0 to 100 (0 no effect, 100 complete control)
Method in brief: as §2

[8] = test system: barnyardgrass (Echinochloa crus-galli); test: Test C flooded paddy test; conditions: for Barnyardgrass plant response rating: Flooded Paddy, scale 0 to 100, 0 no effect, 100 complete control; for Plant response rating, Barnyardgrass: flooded paddy test, scale 0 to 100 (0 no effect, 100 complete control)
Method in brief: as §2

[9] = test system: Sunflower; test: Test C preemergence; conditions: scale 0 to 100, 0 no effect, 100 complete control
[10] = test system: kochia (Kochia scoparia); test: Test C preemergence; conditions: for Plant response rating, Kochia: scale 0 to 100, 0 no effect, 100 complete control; for Plant response rating (0 to 100), Kochia: visual evaluation after 12 to 14 days
Method in brief: (§3)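 Seeds are planted and treated before emergence; for the postemergence test, plants at 1- to 4-leaf stage (2–18 cm) receive the same formulation, a solvent blend containing surfactant. Plants stay in the greenhouse 12–14 days, then response is scored visually from 0 (none) to 100 (complete control).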

[11] = test system: johnsongrass (Sorghum halepense); test: Test C preemergence; conditions: for Plant response rating, Johnsongrass: scale 0 to 100, 0 no effect, 100 complete control; for Plant response rating (0 to 100), Johnsongrass: visual evaluation after 12 to 14 days
Method in brief: as §3

[12] = test system: woolly cupgrass (Eriochloa villosa); test: Test C preemergence; conditions: for Plant response rating, Cupgrass, Woolly: scale 0 to 100, 0 no effect, 100 complete control; for Plant response rating (0 to 100), Cupgrass, Woolly: visual evaluation after 12 to 14 days
Method in brief: as §3

[13] = test system: corn (Zea mays); test: Test C preemergence; conditions: for Plant response rating, Corn: scale 0 to 100, 0 no effect, 100 complete control; for Plant response rating (0 to 100), Corn: visual evaluation after 12 to 14 days
Method in brief: as §3

[14] = test system: Nightshade; test: Test C preemergence; conditions: scale 0 to 100, 0 no effect, 100 complete control
[15] = test system: pigweed (Amaranthus retroflexus); test: Test C preemergence; conditions: preemergence; for Plant response rating, Pigweed: scale 0 to 100, 0 no effect, 100 complete control
Method in brief: as §3

[16] = test system: soybean (Glycine max); test: Test C preemergence; conditions: preemergence; for Plant response rating, Soybean: scale 0 to 100, 0 no effect, 100 complete control
Method in brief: as §3

[17] = test system: yellow nutsedge (Cyperus esculentus); test: Test C preemergence; conditions: for Plant response rating, Nutsedge: scale 0 to 100, 0 no effect, 100 complete control
Method in brief: as §3

[18] = test system: Nightshade; test: Test C preemergence; conditions: Rate 500 g/ha, visual evaluation after 12 to 14 days
[19] = Rate 125 g/ha, scale 0 (no effect) to 100 (complete control)
[20] = Rate 500 g/ha, scale 0 to 100, 0 is no effect, 100 is complete control
[21] = Rate 500 g/ha, visual evaluation after 12 to 14 days

Structure (SMILES): COc1cc(OC)cc(N2CCC(n3ccc(C(C)(C)C)n3)C2=O)c1 (centres unmarked) [Compound 71]
- Plant response rating, Wheat [1, 19]: 0
- Plant response rating, Wheat [1, 20]: 0
- Plant response rating, Wild Oat [2, 19]: 0
- Plant response rating, Wild Oat [2, 20]: 0
- Plant response rating, Barnyardgrass [3, 19]: 0
- Plant response rating, Barnyardgrass [3, 20]: 0
- Plant response rating, Corn [4, 19]: 0
- Plant response rating, Corn [4, 20]: 0
- Flatsedge plant response rating ([5]; Rate 250 g/ha): 100
- Flatsedge plant response rating ([5]; Rate 500 g/ha): 100
- Plant response rating, Flatsedge ([5]; Rate 62 g/ha): 80
- Plant response rating, Flatsedge ([5]; Rate 125 g/ha): 100
- Rice plant response rating ([6]; Rate 250 g/ha): 0
- Rice plant response rating ([6]; Rate 500 g/ha): 60
- Plant response rating, Rice ([6]; Rate 62 g/ha): 0
- Plant response rating, Rice ([6]; Rate 125 g/ha): 0
- Ducksalad plant response rating ([7]; Rate 250 g/ha): 30
- Ducksalad plant response rating ([7]; Rate 500 g/ha): 30
- Plant response rating, Ducksalad ([7]; Rate 62 g/ha): 0
- Plant response rating, Ducksalad ([7]; Rate 125 g/ha): 20
- Barnyardgrass plant response rating ([8]; Rate 250 g/ha): 0
- Barnyardgrass plant response rating ([8]; Rate 500 g/ha): 80
- Plant response rating, Barnyardgrass ([8]; Rate 62 g/ha): 0
- Plant response rating, Barnyardgrass ([8]; Rate 125 g/ha): 0
- Plant response rating, Sunflower ([9]; Rate 125 g/ha): 0
- Plant response rating, Sunflower ([9]; Rate 250 g/ha): 0
- Plant response rating, Kochia ([10]; Rate 62 g/ha): 80
- Plant response rating (0 to 100), Kochia ([10]; preemergence, Rate 250 g/ha): 100
- Plant response rating (0 to 100), Kochia ([10]; preemergence, Rate 500 g/ha): 100
- Plant response rating, Kochia ([10]; preemergence, Rate 125 g/ha): 90
- Plant response rating, Johnsongrass ([11]; Rate 62 g/ha): 0
- Plant response rating (0 to 100), Johnsongrass ([11]; preemergence, Rate 250 g/ha): 0
- Plant response rating (0 to 100), Johnsongrass ([11]; preemergence, Rate 500 g/ha): 40
- Plant response rating, Johnsongrass ([11]; preemergence, Rate 125 g/ha): 0
- Plant response rating, Cupgrass, Woolly ([12]; Rate 62 g/ha): 0
- Plant response rating (0 to 100), Cupgrass, Woolly ([12]; preemergence, Rate 250 g/ha): 100
- Plant response rating (0 to 100), Cupgrass, Woolly ([12]; preemergence, Rate 500 g/ha): 100
- Plant response rating, Cupgrass, Woolly ([12]; preemergence, Rate 125 g/ha): 80
- Plant response rating, Corn ([13]; Rate 62 g/ha): 0
- Plant response rating (0 to 100), Corn ([13]; preemergence, Rate 250 g/ha): 0
- Plant response rating (0 to 100), Corn ([13]; preemergence, Rate 500 g/ha): 30
- Plant response rating, Corn ([13]; preemergence, Rate 125 g/ha): 0
- Plant response rating, Nightshade ([14]; Rate 62 g/ha): 0
- Plant response rating, Nightshade ([14]; Rate 125 g/ha): 20
- Plant response rating, Nightshade ([14]; Rate 250 g/ha): 30
- Plant response rating (0 to 100), Pigweed [15, 21]: 100
- Plant response rating, Pigweed ([15]; Rate 125 g/ha): 0
- Plant response rating, Pigweed ([15]; Rate 250 g/ha): 100
- Plant response rating (0 to 100), Soybean [16, 21]: 0
- Plant response rating, Soybean ([16]; Rate 125 g/ha): 0
- Plant response rating, Soybean ([16]; Rate 250 g/ha): 0
- Plant response rating, Nutsedge ([17]; Rate 62 g/ha): 0
- Plant response rating (0 to 100), Nutsedge ([17]; preemergence, Rate 500 g/ha, visual evaluation after 12 to 14 days): 70
- Plant response rating, Nutsedge ([17]; preemergence, Rate 125 g/ha): 30
- Plant response rating, Nutsedge ([17]; preemergence, Rate 250 g/ha): 70
- Plant response rating (0 to 100), Nightshade [18]: 30
